Data taken from article PMC7272483, “Insights into the pH-dependent, extracellular sucrose utilization and concomitant levan formation by Gluconobacter albidus TMW 2.1191” (Antonie Van Leeuwenhoek, 2020).

Target: T1, levansucrase of G. albidus TMW 2.1191 (Gluconobacter albidus, UniProt A0A149SZ56)
T1 construct: gene lsc-2; cloned levansucrase gene expressed from pBAD in E. coli Top 10, crude lysate (Ni-NTA purification failed); native released enzyme ~48 kDa monomer, also tested in crude buffer supernatant
T1 sequence (A0A149SZ56 1-436): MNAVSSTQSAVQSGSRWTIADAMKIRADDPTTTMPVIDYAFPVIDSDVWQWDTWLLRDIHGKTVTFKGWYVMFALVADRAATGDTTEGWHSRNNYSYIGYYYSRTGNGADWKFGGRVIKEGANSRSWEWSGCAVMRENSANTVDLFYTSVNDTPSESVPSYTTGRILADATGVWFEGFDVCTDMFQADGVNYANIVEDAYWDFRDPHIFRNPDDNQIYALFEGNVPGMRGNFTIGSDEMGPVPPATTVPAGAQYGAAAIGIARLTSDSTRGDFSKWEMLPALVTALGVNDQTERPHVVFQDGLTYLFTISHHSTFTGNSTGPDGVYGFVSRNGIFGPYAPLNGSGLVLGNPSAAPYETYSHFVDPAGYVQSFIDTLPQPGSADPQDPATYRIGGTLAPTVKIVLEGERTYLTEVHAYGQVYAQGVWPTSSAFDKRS
Assay: glucose/fructose release, enzymatic D-fructose/D-glucose kit
Assay type: cell-based
Settings: E. coli lysate with recombinant enzyme; pH 3.0-7.0, 30 °C, 1 h; hydrolysis and transfructosylation

OC[C@H]1O[C@@](CO)(O[C@H]2O[C@H](CO)[C@@H](O)[C@H](O)[C@H]2O)[C@@H](O)[C@@H]1O [sucrose]
volumetric activity: the enzyme exhibits comparable activities and Michaelis–Menten kinetics within a broad pH range
